ChEMBL document CHEMBL1201862, “PubChem BioAssay data set” (2004)
Active and inactive are the calls of the source.

What was measured:
Leucine aminopeptidase = molecular target: T1, Leucine aminopeptidase (Plasmodium falciparum 3D7, UniProt Q8IL11); test: P. falciparum M17LAP inhibitors, primary screen, biochemical, fluorogenic H-Leu-NHMec substrate, 1536-well (AID 1619); type: functional
T1 sequence (Q8IL11 whole entry): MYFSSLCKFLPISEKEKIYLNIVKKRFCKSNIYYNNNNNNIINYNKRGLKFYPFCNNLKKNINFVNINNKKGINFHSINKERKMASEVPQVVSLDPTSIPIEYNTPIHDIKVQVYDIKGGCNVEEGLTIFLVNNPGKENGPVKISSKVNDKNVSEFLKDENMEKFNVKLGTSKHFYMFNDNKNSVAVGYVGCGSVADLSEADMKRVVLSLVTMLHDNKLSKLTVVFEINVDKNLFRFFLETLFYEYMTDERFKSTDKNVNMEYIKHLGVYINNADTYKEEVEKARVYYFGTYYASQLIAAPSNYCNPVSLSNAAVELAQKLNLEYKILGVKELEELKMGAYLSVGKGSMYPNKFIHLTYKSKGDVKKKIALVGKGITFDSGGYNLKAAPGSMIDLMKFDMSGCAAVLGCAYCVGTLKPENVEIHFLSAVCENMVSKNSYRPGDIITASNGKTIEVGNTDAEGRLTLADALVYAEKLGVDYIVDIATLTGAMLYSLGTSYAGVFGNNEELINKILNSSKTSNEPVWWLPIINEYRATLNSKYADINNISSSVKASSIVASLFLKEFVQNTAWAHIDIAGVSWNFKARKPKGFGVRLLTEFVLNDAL

[1] = HEp-2 cell cytotoxicity, dose response, cytotoxicity control for RSV inhibitor project, HTS (AID 2410); type: functional; conditions: human respiratory syncytial virus
[2] = molecular target: T2, High affinity choline transporter 1 (Homo sapiens, UniProt Q9GZV3); test: CHT inhibitors, dose response, cell-based, 5-point CRC, membrane potential dye (AID 504840); type: functional
T2 sequence (Q9GZV3 whole entry): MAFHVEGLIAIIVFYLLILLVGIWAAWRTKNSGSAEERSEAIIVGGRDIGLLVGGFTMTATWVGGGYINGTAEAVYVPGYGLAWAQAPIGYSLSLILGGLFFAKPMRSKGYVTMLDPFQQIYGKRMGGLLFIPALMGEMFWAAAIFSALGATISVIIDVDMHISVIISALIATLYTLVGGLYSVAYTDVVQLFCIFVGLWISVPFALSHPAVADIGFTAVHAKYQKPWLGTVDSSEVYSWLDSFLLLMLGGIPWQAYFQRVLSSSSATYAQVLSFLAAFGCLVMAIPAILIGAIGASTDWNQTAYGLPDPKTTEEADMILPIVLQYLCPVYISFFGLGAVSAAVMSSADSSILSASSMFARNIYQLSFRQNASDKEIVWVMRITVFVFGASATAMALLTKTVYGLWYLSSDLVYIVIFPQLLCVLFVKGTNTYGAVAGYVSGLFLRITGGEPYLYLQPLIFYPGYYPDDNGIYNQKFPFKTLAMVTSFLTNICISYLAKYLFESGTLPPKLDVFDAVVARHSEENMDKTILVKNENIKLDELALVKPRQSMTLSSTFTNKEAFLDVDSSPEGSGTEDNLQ

[3] = molecular target: T3, Lysine-specific demethylase 4C (Homo sapiens, UniProt Q9H3R0); test: GASC-1 (JMJD2C) histone demethylase inhibitors, dose response, biochemical, DELFIA europium, cherry-picked samples (AID 488835); type: functional
T3 sequence (Q9H3R0 whole entry): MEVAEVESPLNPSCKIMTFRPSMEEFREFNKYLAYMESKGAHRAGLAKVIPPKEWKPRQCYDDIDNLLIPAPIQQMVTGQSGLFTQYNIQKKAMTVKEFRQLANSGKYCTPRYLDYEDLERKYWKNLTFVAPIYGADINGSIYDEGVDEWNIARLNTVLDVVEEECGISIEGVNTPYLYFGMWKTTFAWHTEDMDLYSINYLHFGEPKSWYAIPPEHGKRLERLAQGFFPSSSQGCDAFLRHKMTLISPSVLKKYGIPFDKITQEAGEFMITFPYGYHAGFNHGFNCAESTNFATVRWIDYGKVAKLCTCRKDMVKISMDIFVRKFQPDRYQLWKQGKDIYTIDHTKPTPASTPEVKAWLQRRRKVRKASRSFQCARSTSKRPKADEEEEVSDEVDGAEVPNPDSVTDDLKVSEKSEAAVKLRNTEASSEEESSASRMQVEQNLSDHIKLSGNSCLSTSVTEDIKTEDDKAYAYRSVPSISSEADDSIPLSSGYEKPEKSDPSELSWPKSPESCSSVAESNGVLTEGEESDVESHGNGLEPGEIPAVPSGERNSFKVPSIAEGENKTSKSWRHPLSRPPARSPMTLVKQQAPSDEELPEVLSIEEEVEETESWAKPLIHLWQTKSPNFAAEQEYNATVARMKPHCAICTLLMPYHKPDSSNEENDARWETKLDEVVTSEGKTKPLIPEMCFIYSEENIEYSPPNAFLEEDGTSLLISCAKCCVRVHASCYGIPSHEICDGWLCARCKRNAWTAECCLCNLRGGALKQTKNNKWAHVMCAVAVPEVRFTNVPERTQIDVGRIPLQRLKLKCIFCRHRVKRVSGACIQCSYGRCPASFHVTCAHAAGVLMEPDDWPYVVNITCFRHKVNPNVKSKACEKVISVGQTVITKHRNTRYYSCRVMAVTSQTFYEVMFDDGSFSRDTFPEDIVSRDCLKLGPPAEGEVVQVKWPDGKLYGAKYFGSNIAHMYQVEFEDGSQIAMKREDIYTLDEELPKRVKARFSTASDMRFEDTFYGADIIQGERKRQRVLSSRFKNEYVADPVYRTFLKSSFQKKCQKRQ

Large T antigen = Large T antigen (Simian virus 40, UniProt P03070); type: functional, Betapolyomavirus macacae;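 note: Confirmatory-stage PubChem screen for compounds that inhibit SV40 T antigen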
[4] = A cytotoxicity screen of small molecule inhibitors of the PhoP region in Salmonella typhi identified in the primary screen. [Related pubchem assays: 1850, 1864, 1985 ]; type: functional
[5] = molecular target: Glyceraldehyde-3-phosphate dehydrogenase (Homo sapiens, UniProt P04406)
[6] = test system: Streptococcus sp. 'group A'; test: growth inhibition of control SK(-) GAS strain, dose response, counter-screen for streptokinase expression inhibitor project, luminescence, kanamycin, BacTiterGlo, confirmation (AID 1900); type: functional, organism-based
Streptococcus = test: Group A Streptococcus viability loss, dose response, counter-screen for streptokinase expression inhibitor project, luminescence, BacTiterGlo (AID 1915); type: functional, organism-based;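 note: potency for reduction of bacterial viability or growth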
Streptokinase A = molecular target: T4, Streptokinase A (Streptococcus pyogenes serotype M1, UniProt P10520); test: S. pyogenes streptokinase expression inhibitors, potency, dose response, plasminogen activation absorbance, OD405 (AID 1914); type: functional, Streptococcus pyogenes M1 GAS;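 note: secreted streptokinase activity via plasminogen activation per viability signal from cell pellet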
T4 sequence (P10520 whole entry): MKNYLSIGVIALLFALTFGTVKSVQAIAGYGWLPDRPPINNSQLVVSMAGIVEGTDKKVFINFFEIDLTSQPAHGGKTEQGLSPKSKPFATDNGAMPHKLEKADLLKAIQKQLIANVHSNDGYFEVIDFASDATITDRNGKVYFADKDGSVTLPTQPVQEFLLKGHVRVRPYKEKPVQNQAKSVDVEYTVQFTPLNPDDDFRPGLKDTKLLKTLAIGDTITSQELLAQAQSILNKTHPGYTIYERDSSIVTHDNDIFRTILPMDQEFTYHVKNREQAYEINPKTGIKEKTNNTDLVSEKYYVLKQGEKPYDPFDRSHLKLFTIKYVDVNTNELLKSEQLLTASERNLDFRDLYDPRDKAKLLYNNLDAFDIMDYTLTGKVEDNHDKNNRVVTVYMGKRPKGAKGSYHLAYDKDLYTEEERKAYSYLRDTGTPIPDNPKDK

Estrogen receptor = molecular target: T5, Estrogen receptor (Homo sapiens, UniProt P03372);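 note: potency for inhibiting coactivator peptide recruitment to the receptor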
T5 sequence (P03372 whole entry): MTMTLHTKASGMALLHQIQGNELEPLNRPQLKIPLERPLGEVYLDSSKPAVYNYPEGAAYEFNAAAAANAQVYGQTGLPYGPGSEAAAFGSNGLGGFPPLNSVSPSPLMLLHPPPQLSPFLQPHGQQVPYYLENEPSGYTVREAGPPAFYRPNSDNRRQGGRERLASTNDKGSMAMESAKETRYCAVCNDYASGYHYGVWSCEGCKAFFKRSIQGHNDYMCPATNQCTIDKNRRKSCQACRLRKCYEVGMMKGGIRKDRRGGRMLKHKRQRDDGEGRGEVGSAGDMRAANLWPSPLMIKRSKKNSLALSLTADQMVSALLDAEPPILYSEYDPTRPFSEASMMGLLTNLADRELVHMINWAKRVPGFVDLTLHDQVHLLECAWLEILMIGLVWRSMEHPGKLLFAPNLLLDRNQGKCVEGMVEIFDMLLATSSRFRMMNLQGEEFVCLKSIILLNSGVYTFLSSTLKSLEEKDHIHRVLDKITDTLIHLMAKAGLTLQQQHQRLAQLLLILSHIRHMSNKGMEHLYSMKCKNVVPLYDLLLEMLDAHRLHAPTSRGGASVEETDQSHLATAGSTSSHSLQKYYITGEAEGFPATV

H9c2 = test: cells; type: functional, cell-based; conditions: Rattus norvegicus, H9c2, Myocardium;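 note: confirmatory concentration-response retest of ultra-high-throughput screening hits for modulation of myocardial damage; cell death induced by hydrogen peroxide oxidative stress; compound pretreatment for 60 min then peroxide exposure for 2 h; potency is for protecting the cells against peroxide damage rather than for killing them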
[7] = molecular target: T6, Corticotropin-releasing factor receptor 2/Corticotropin-releasing factor-binding protein (Homo sapiens, UniProt P24387+Q13324); test: activators of CRF receptor 2 with binding protein – uHTS hits, confirmation (AID 602473); type: functional; conditions: read-out: EC50_Mean
T6 sequence (Q13324 whole entry): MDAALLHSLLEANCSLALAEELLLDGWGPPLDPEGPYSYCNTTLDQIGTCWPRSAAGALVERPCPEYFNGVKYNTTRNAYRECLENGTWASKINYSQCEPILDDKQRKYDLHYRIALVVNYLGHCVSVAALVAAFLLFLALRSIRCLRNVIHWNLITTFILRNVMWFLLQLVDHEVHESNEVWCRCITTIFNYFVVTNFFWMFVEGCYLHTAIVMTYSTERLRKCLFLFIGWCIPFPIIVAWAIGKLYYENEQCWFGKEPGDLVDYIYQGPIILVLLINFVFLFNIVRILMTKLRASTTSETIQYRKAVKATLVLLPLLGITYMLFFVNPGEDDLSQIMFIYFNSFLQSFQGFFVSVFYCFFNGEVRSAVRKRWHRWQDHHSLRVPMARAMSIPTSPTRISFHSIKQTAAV
T6 sequence (P24387 whole entry): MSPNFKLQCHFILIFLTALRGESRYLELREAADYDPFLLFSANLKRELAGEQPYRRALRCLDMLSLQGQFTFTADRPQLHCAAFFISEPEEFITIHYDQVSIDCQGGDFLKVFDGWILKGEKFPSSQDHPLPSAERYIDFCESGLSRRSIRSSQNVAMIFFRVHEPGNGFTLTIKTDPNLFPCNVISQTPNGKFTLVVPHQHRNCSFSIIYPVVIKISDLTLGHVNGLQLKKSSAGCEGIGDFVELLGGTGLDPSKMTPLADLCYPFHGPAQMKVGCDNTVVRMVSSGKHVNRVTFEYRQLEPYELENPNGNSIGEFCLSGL

Sequence of Large T antigen (P03070 whole entry): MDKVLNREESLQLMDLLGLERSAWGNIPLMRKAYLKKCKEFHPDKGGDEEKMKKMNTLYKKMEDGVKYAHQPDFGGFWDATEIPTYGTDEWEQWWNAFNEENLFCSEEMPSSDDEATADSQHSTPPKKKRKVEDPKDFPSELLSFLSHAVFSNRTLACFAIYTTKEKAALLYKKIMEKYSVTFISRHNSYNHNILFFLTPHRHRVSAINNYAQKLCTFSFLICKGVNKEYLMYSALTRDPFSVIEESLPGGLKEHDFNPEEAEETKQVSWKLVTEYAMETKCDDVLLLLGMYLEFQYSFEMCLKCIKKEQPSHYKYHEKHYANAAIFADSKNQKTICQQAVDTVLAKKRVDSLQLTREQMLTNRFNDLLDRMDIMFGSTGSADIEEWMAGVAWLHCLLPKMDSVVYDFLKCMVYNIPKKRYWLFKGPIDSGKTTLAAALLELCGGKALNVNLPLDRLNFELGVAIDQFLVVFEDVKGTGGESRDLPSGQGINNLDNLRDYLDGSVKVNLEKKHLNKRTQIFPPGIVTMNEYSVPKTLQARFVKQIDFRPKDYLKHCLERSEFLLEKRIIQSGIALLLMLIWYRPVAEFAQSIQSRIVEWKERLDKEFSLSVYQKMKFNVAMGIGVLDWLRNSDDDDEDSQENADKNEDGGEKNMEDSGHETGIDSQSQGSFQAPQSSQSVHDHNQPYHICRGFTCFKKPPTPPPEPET
Sequence of Glyceraldehyde-3-phosphate dehydrogenase (P04406 whole entry): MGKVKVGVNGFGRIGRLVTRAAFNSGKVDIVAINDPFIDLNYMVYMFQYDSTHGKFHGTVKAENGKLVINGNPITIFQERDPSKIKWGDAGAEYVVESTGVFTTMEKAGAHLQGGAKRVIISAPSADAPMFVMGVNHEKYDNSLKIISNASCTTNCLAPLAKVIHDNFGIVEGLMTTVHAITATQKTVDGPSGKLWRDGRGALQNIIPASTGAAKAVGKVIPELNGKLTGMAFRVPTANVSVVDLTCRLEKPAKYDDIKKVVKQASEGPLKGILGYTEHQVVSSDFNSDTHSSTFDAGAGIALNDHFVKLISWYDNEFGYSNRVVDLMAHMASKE

**Q.** For `O=C(CN1C(=O)c2ccccc2C1=O)Nc1ccc2c(c1)OCO2`, which IC50 (Leucine aminopeptidase) is on record?
**A.** Its IC50 is 9.43 µM (active).

**Q.** For `CCOc1ccc(N2C(=O)C(CC(=O)Nc3ccc(F)cc3)N(Cc3ccccn3)C2=S)cc1` (centres undefined), which CC50 [1] is on record?
**A.** The CC50 was 32.9 µM (active).

**Q.** And the IC50 (cells)?
**A.** The IC50 was 23.9 µM (active).

**Q.** What does the source list for `Cc1cc(CN(C)C(=O)c2cc(COc3ccc(F)cc3Cl)on2)n[nH]1`?
**A.** CC50 [1]: 39.1 µM (active); IC50 (cells): 24.6 µM (active); IC50 [2]: 9.89 µM (active)

**Q.** For `CC(=O)c1cc2c(O)c(O)ccc2o1`, which AC50 [3] is on record?
**A.** Its AC50 is 9.2 µM (active).

**Q.** What about the IC50 (Leucine aminopeptidase) of the same compound?
**A.** Its IC50 is 75.4 µM (active).

**Q.** And the IC50 (Large T antigen)?
**A.** Its IC50 is 18.5 µM (active).

**Q.** Which EC50 [4] does the source give for `CCOc1ccc(NC(S)=Nc2cc(C)[nH]n2)cc1` here?
**A.** Its EC50 is > 50 µM (active).

**Q.** Which IC50 [5] does the source give for `CC(=O)Oc1ccc(-c2cccc(C(=O)NCC(=O)O)c2)cc1` here?
**A.** The IC50 was > 100 µM (not active).

**Q.** For `COc1ccc2[nH]cc(C(=O)CN3CCN(C4CCCCC4)CC3)c2c1`, which IC50 (cells) is on record?
**A.** Its IC50 is 36.6 µM (active).

**Q.** With `COc1cc2[nH]c(=S)n(CC3CCCO3)c(=O)c2cc1OC` (centres undefined) as the compound, how does the EC50 [4] read?
**A.** The EC50 was > 50 µM (active).

**Q.** For `O=C(CN1C2=NCCCN2c2ccccc21)c1ccc2c(c1)OCO2`, which EC50 [4] is on record?
**A.** Its EC50 is > 50 µM (active).

**Q.** For `N#CC(C(=O)C12CC3CC(CC(C3)C1)C2)c1nc2ccccc2[nH]1` (centres undefined), which EC50 [6] is on record?
**A.** The EC50 was 5.14 µM (active).

**Q.** What about the EC50 (Streptococcus) of the same compound?
**A.** Its EC50 is > 150 µM (not active).

**Q.** What about the EC50 (Streptokinase A) of the same compound?
**A.** The EC50 was 66 µM (active).

**Q.** What about the EC50 [4] of the same compound?
**A.** Its EC50 is > 50 µM (active).

**Q.** For `Cc1nc(SCC(=O)Nc2ccc3c(c2)OCCO3)nc(C)c1C`, which IC50 (Leucine aminopeptidase) is on record?
**A.** The IC50 was 43.5 µM (active).

**Q.** What does the source list for `COc1cc(/C=c2\s/c(=C(/C#N)C(=O)N3CCCC3)n(-c3ccccc3)c2=O)ccc1O`?
**A.** IC50 (Estrogen receptor): > 50 µM (not active); IC50 (H9c2): > 79 µM (inactive); EC50 [7]: 8.71 µM (active)

**Q.** Which CC50 [1] does the source give for `COc1cc(/C=N/NC(=O)COc2c(C)cc([N+](=O)[O-])cc2C)ccc1OC(=O)c1ccccc1` here?
**A.** Its CC50 is 41.7 µM (active).

**Q.** And the IC50 (cells)?
**A.** The IC50 was 17.9 µM (active).
